US5420334A, “Inhibitors of farnesyl-protein transferase” (Merck & Co., Inc., priority 1994, dated 1995)

What was measured:
[1] = biological target: T1, bovine brain FPTase (Bos taurus, UniProt P29702+P49355); test: In vitro inhibition of Ras farnesyl-protein transferase (FPTase); format: biochemical; conditions: Ras-CVLS, [3H]FPP, concentration giving 50% inhibition, read-out: IC50, inhibition of RAS farnesylation
T1 construct: Famesyl-protein transferase (FPTase) from bovine brain; from tissue; host or cells: bovine brain, partially purified (DEAE-Sephacel, N-octyl agarose, mono Q)
Method: The intrinsic famesyl-protein transferase (FPTase) activity of representative compounds of this invention was measured by the assay as described below:
Famesyl-protein transferase (FPTase) from bovine brain was chromatographed on DEAE-Sephacel (Pharmacia, 0-0.8M NaCl gradient elution), N-octyl agarose (Sigma, 0-0.6M NaCl gradient elution), and a mono Q HPLC column (Pharmacia, 0-0.3M NaCl gradient). Ras-CVLS (Cys-Val-Leu-Ser) at […], […] [^3 H]FPP, and the indicated compounds were incubated with this partially purified enzyme preparation. FPTase inhibition data is a measurement of the ability of the test compound to inhibit Ras farnesylation in vitro.
Famesyl-protein transferase (FPTase) from bovine brain was chromatographed on DEAE-Sephacel (Pharmacia, 0-0.8M NaCl gradient elution), N-octyl agarose (Sigma, 0-0.6M NaCl gradient elution), and a mono Q HPLC column (Pharmacia, 0-0.3M NaCl gradient). Ras-CVLS at 3.5 µM, 0.25 µM [3H]FPP, and the indicated compounds were incubated with either a partially purified bovine enzyme preparation or a recombinant human enzyme preparation. The FPTase data presented below in Table 1 reflects the ability of the test compound to inhibit RAS famesylation in vitro, as described in Pompliano, et al., Biochemistry 31, 3800 (1992).
*(IC50 is the concentration of the test compound which gives 50%
inhibition of bovine brain FPTase under the described assay conditions)

[2] = test system: Ras famesylation; conditions: cited from earlier work

| IC50 [1] | SMILES | Inhibition of Ras famesylation in vivo [2] |
| --- | --- | --- |
| 18.6 µM | Cc1cc(O)c(CCC(C)CC[C@@]2(C)[C@H](C)C(=O)CC[C@@H]2C)c(O)c1C (some centres unmarked) [Compound 14] | – |
| 101 µM | C/C(=C\Cc1c(O)cc(C)c(CO)c1O)CC[C@@]1(C)[C@H](C)[C@H](O)CC[C@@H]1C [Compound 15] | – |
| 30.7 µM | C/C(=C\Cc1c(O)cc(C)c(C)c1O)CC[C@@]1(C)[C@H](C)C(=O)CC[C@@H]1C [Compound 16] | – |
| > 140 µM | C/C(=C\Cc1c(O)cc(C)c(C)c1O)CC[C@@]1(C)[C@H](C)[C@H](O)CC[C@@H]1C [Compound 17] | – |
| 75 µM | C/C(=C\Cc1c(O)cc(C)c(CO)c1O)CC[C@@]1(C)[C@H](C)C(=O)CC[C@@H]1C [Compound 18] | – |
| > 140 µM | COC(=O)c1c(C)cc(O)c(C/C=C(\C)CC[C@@]2(C)[C@H](C)C(=O)CC[C@@H]2C)c1O [Compound 20] | – |
| > 50 µM | COCOc1cc(C)c(C=O)c(OCOC)c1C/C=C(\C)CC[C@@]1(C)[C@H](C)C(=O)CC[C@@H]1C [Compound 21] | – |
| 20 µM | C/C(=C\Cc1c(O)cc(C)cc1O)CC[C@@]1(C)[C@H](C)C(=O)CC[C@@H]1C [Compound 24] | – |

Second part, the compound before the results:

| SMILES | IC50 [1] | Inhibition of Ras famesylation in vivo [2] |
| --- | --- | --- |
| C/C(=C\Cc1c(O)cc(C)c(C=O)c1O)CC[C@@]1(C)[C@H](C)C(=O)CC[C@@H]1C [Compound 1, 3-[5-[1(R),2(S),6(S)-trimethyl-5-oxocyclohexyl]-3-methyl-2-pentenyl]-2,4-di hydroxy-6-methylbenzaldehyde] | 0.7 µM | – |
| CC(=O)O[C@@H]1CC(=O)[C@@H](C)[C@](C)(/C=C/C(C)=C/Cc2c(O)c(Cl)c(C)c(C=O)c2O)[C@H]1C [Compound 2] | 2.8 µM | – |
| CC(=O)O[C@@H]1CC(=O)[C@@H](C)[C@](C)(/C=C/C(C)=C/Cc2c(O)cc(C)c(C=O)c2O)[C@H]1C [Compound 3] | 5.6 µM | – |
| CC(/C=C/[C@@]1(C)[C@H](C)C(=O)CC[C@@H]1C)=C\Cc1c(O)cc(C)c(C=O)c1O [Compound 4] | 6.5 µM | – |
| CC(/C=C/[C@@]1(C)[C@H](C)C(=O)C=C[C@@H]1C)=C\Cc1c(O)c(Cl)c(C)c(C=O)c1O [Compound 5] | 15 µM | – |
| C/C(=C\Cc1c(O)cc(C)c(C=O)c1O)[C@H](C[C@@]1(C)[C@H](C)C(=O)CC[C@@H]1C)OC(=O)CC(C)C [Compound 6, 3-[5-[1(R),2(S),6(S)-trimethyl-5-oxocyclohexyl]-3-methyl-4(S)-[3-methylbutanoyloxy]-2-pentenyl]-2,4-dihydroxy-6-methylbenzaldehyde] | 4.6 µM | – |
| C/C(=C\Cc1c(O)c(Cl)c(C)c(C=O)c1O)[C@H](C[C@@]1(C)[C@H](C)C(=O)CC[C@@H]1C)OC(=O)CC(C)C [Compound 7] | 6.5 µM | – |
| CCC(=O)O[C@@H](C[C@@]1(C)[C@H](C)C(=O)CC[C@@H]1C)/C(C)=C/Cc1c(O)cc(C)c(C=O)c1O [Compound 8] | 2.2 µM | – |
| CC(=O)O[C@@H](C[C@@]1(C)[C@H](C)C(=O)CC[C@@H]1C)/C(C)=C/Cc1c(O)cc(C)c(C=O)c1O [Compound 9] | 13 µM | – |
| CC(=O)Oc1cc(C)c(C=O)c(OC(C)=O)c1C/C=C(\C)CC[C@@]1(C)[C@H](C)C(=O)CC[C@@H]1C [Compound 11] | 6.5 µM | – |
| COc1cc(C)c(C=O)c(O)c1C/C=C(C)/C=C/[C@@]1(C)[C@H](C)C(=O)CC[C@@H]1C [Compound 12] | 31 µM | – |
| COc1cc(C)c(C=O)c(O)c1C/C=C(\C)CC[C@@]1(C)[C@H](C)C(=O)CC[C@@H]1C [Compound 13, 3-[5-[1(R),2(S),6(S)-trimethyl-5-oxocyclohexyl]-3-methyl-2-pentenyl]-2-hydroxy-4-methoxy-6-methylbenzaldehyde] | 2 µM | – |
| C/C(=C\Cc1c(O[Si](C)(C)C(C)(C)C)cc(C)c(C=O)c1O)CC[C@@]1(C)[C@H](C)C(=O)CC[C@@H]1C [Compound 19] | > 140 µM | – |
| CC[C@H](C)C(=O)O[C@H]1CCC=C2C=C[C@H](C)[C@H](CC[C@@H]3C[C@@H](O)CC(=O)O3)[C@H]21 [compactin] | – | Inhibition of Ras famesylation in vivo has been demonstrated |
| CC[C@H](C)C(=O)O[C@H]1C[C@@H](C)C=C2C=C[C@H](C)[C@H](CC[C@@H]3C[C@@H](O)CC(=O)O3)[C@H]21 [lovastatin] | – | Inhibition of Ras famesylation in vivo has been demonstrated |
